Experiments:
Assay type in all cases: cell-based
Details in all cases: 24 hours of compound treatment, 50 nM and 500 nM tested (concentration behind the class not stated)
IKZF1 = molecular target: T1, IKZF1 (Homo sapiens, UniProt Q13422+Q96SW2); assay: Western-blot assay of substrate protein degradation in hPBMCs, IKZF1
T1 construct: endogenous in cells; host or cells: hPBMCs (Milecell Biotechnologies)

IKZF2 = molecular target: T2, IKZF2 (Homo sapiens, UniProt Q96SW2+Q9UKS7); assay: Western-blot assay of substrate protein degradation in hPBMCs, IKZF2
T2 construct: endogenous in cells; host or cells: hPBMCs (Milecell Biotechnologies)

CK1α = molecular target: T3, CK1α (Homo sapiens, UniProt P48729+Q96SW2); assay: Western-blot assay of substrate protein degradation in hPBMCs, CK1α
T3 construct: endogenous in cells; host or cells: hPBMCs (Milecell Biotechnologies)

WEE1 = molecular target: T4, WEE1 (Homo sapiens, UniProt P30291+Q96SW2); assay: Western-blot assay of substrate protein degradation in hPBMCs, WEE1
T4 construct: endogenous in cells; host or cells: hPBMCs (Milecell Biotechnologies)

GSPT1 = molecular target: T5, GSPT1 (Homo sapiens, UniProt P15170+Q96SW2); assay: Western-blot assay of substrate protein degradation in hPBMCs, GSPT1
T5 construct: endogenous in cells; host or cells: hPBMCs (Milecell Biotechnologies)

IKZF3 = molecular target: T6, IKZF3 (Homo sapiens, UniProt Q96SW2+Q9UKT9); assay: Western-blot assay of substrate protein degradation in hPBMCs, IKZF3
T6 construct: endogenous in cells; host or cells: hPBMCs (Milecell Biotechnologies)
T6 sequence (Q9UKT9 whole entry): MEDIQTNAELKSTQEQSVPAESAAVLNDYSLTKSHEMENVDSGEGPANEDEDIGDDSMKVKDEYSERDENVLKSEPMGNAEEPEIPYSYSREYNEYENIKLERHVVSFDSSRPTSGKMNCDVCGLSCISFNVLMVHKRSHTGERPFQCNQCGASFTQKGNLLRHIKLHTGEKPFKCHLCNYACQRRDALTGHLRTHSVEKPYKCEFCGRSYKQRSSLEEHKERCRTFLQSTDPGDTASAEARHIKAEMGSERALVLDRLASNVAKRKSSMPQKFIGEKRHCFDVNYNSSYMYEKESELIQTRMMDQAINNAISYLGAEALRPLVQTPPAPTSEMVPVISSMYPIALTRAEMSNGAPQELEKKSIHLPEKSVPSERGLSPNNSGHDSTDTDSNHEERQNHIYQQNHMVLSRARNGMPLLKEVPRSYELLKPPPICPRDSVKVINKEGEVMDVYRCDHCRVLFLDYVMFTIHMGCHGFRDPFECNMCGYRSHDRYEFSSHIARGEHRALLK
T6 sequence (Q96SW2 whole entry): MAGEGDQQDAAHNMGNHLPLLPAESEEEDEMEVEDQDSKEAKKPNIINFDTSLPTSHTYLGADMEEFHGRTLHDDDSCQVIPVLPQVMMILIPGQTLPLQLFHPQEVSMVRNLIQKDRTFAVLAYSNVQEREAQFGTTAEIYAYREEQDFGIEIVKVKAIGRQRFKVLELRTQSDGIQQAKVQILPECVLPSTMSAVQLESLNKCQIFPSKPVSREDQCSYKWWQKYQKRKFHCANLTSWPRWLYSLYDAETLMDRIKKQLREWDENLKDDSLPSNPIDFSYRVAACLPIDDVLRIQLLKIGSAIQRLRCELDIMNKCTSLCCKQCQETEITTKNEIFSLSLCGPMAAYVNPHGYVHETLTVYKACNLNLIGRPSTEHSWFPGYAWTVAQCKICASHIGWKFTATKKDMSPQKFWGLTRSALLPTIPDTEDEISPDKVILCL
T6 sequence (Q16531 whole entry partner): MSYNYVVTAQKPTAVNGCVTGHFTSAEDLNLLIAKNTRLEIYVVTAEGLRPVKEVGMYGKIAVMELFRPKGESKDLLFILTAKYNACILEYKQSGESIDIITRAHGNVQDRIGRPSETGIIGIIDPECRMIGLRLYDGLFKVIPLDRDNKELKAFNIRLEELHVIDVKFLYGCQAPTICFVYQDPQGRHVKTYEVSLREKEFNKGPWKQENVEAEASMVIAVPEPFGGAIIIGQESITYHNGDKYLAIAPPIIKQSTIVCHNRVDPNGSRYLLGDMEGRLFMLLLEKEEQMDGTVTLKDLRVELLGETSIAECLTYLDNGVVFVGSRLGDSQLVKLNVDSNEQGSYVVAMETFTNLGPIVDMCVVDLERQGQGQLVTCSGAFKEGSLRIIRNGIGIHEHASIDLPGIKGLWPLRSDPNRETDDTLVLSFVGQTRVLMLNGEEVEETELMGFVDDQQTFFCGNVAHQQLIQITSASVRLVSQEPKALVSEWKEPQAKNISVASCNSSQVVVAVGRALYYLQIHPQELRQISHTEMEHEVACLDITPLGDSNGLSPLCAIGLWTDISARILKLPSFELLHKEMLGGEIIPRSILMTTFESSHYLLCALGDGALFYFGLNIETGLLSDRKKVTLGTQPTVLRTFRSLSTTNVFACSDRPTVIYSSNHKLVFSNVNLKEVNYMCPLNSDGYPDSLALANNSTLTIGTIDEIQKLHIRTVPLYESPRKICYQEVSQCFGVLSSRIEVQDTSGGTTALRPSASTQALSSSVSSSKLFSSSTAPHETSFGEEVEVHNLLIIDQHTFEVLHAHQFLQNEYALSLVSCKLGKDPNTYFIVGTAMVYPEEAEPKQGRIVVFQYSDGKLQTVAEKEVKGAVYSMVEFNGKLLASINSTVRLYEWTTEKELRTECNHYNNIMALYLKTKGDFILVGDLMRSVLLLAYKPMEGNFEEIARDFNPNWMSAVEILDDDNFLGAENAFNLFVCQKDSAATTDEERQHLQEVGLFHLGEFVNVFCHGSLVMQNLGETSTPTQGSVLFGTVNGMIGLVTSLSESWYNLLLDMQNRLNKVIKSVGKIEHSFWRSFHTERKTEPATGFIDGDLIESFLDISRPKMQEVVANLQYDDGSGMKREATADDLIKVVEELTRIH

T1 sequence (Q13422 whole entry): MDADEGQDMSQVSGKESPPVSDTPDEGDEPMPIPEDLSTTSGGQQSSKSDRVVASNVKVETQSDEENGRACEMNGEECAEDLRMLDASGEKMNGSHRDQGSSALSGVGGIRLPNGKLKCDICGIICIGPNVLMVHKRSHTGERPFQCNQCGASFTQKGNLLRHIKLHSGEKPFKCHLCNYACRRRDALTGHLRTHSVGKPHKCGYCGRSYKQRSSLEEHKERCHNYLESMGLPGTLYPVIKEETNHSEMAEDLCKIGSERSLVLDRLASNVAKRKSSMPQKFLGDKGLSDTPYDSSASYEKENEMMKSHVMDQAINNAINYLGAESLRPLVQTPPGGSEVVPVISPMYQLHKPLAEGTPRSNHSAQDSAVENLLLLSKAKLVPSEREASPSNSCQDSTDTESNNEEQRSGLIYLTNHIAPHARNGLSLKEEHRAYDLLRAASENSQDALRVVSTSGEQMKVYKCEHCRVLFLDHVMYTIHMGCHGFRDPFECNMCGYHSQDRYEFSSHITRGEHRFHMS
T1 sequence (Q96SW2 whole entry): as the sequence (Q96SW2 whole entry) above
T1 sequence (Q16531 whole entry partner): as the sequence (Q16531 whole entry partner) above
T2 sequence (Q9UKS7 whole entry): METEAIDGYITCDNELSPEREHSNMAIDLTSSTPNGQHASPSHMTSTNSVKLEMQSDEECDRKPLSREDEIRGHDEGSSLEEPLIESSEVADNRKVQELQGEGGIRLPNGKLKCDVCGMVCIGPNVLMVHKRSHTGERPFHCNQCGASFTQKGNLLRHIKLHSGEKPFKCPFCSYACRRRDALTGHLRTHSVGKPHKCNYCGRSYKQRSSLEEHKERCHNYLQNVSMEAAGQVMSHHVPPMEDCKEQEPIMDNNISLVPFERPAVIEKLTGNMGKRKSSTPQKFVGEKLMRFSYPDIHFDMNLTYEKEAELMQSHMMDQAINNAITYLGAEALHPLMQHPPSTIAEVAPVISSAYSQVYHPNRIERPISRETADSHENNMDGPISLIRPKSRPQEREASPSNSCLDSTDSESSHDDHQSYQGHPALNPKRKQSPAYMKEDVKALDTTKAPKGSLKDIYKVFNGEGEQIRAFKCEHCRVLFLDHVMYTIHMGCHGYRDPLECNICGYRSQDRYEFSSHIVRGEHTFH
T2 sequence (Q96SW2 whole entry): as the sequence (Q96SW2 whole entry) above
T2 sequence (Q16531 whole entry partner): as the sequence (Q16531 whole entry partner) above
T5 sequence (P15170 whole entry): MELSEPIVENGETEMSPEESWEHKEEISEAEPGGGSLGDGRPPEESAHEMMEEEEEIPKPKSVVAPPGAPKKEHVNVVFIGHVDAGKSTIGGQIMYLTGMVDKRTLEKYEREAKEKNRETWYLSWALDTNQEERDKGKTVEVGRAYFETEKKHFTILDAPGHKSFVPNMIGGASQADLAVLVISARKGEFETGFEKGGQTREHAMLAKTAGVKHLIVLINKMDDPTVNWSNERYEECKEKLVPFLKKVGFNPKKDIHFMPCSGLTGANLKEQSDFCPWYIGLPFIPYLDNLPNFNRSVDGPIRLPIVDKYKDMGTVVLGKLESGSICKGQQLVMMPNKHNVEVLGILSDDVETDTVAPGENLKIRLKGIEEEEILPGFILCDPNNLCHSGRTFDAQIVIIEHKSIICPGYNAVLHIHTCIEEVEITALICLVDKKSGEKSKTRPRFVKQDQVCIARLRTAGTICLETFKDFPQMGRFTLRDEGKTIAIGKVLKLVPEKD
T5 sequence (Q96SW2 whole entry): as the sequence (Q96SW2 whole entry) above
T5 sequence (Q16531 whole entry partner): as the sequence (Q16531 whole entry partner) above
T3 sequence (P48729 whole entry): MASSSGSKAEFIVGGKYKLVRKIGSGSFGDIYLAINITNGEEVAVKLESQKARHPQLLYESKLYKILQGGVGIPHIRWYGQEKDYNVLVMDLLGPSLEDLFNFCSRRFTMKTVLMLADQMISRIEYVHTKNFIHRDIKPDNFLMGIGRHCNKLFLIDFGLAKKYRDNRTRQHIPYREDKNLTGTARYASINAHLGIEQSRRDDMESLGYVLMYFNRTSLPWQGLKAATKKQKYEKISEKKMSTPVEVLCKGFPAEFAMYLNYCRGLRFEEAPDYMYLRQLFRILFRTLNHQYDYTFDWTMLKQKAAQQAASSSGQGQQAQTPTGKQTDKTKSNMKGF
T3 sequence (Q96SW2 whole entry): as the sequence (Q96SW2 whole entry) above
T3 sequence (Q16531 whole entry partner): as the sequence (Q16531 whole entry partner) above

SMILES | IKZF 1 substrate protein remaining % (IKZF1) | IKZF2 substrate protein remaining % (IKZF2) | CK1a substrate protein remaining % (CK1α) | Weel substrate protein remaining % (WEE1) | GSPT1 substrate protein remaining % (GSPT1) | IKZF3 substrate protein remaining % (IKZF3)
Cc1nc(C2CCN(Cc3ccc4c(c3)C(=O)N(C3CCC(=O)NC3=O)C4=O)CC2)c2ccsc2n1 (stereo not drawn) [GT-06647, 2-(2,6-dioxopiperidin-3-yl)-5-((4-(2-methylthieno[2,3-d]pyrimidin-4-yl)piperidin-1-yl)methyl)isoindoline-1,3-dione] | B (80%< substrate protein remaining %≤ 100%) | A (0% ≤ substrate protein remaining % ≤ 80%) | A (0% ≤ substrate protein remaining % ≤ 80%) | A (0% ≤ substrate protein remaining % ≤ 80%) | A (0% ≤ substrate protein remaining % ≤ 80%) | B (80%< substrate protein remaining %≤ 100%)
Cc1nc(C2CCN(Cc3ccc4c(c3)C(=O)N(C3CCC(=O)NC3=O)C4=O)CC2)c2c3c(sc2n1)CCCC3 (stereo not drawn) [GT-06648, 2-(2,6-dioxopiperidin-3-yl)-5-((4-(2-methyl-5,6,7,8-tetrahydrobenzo[4,5]thieno[2,3-d]pyrimidin-4-yl)piperidin-1-yl)methyl)isoindoline-1,3-dione] | B (80%< substrate protein remaining %≤ 100%) | A (0% ≤ substrate protein remaining % ≤ 80%) | A (0% ≤ substrate protein remaining % ≤ 80%) | A (0% ≤ substrate protein remaining % ≤ 80%) | A (0% ≤ substrate protein remaining % ≤ 80%) | B (80%< substrate protein remaining %≤ 100%)
Cc1csc2ncnc(C3=CCN(Cc4ccc5c(c4)C(=O)N(C4CCC(=O)NC4=O)C5=O)CC3)c12 (stereo not drawn) [GT-06654, 2-(2,6-dioxopiperidin-3-yl)-5-((4-(5-methylthieno[2,3-d]pyrimidin-4-yl)-3,6-dihydropyridin-1(2H)-yl)methyl)isoindoline-1,3-dione] | B (80%< substrate protein remaining %≤ 100%) | B (80%< substrate protein remaining %≤ 100%) | B (80%< substrate protein remaining %≤ 100%) | A (0% ≤ substrate protein remaining % ≤ 80%) | A (0% ≤ substrate protein remaining % ≤ 80%) | B (80%< substrate protein remaining %≤ 100%)
O=C1CCC(N2C(=O)c3ccc(CN4C5CC4CN(c4cccc(Cl)c4Cl)C5)cc3C2=O)C(=O)N1 (stereo not drawn) [GT-06688, 5-((3-(2,3-dichlorophenyl)-3,6-diazabicyclo[3.1.1]heptan-6-yl)methyl)-2-(2,6-dioxopiperidin-3-yl)isoindoline-1,3-dione] | B (80%< substrate protein remaining %≤ 100%) | B (80%< substrate protein remaining %≤ 100%) | B (80%< substrate protein remaining %≤ 100%) | B (80%< substrate protein remaining %≤ 100%) | A (0% ≤ substrate protein remaining % ≤ 80%) | B (80%< substrate protein remaining %≤ 100%)
O=C1CCC(N2C(=O)c3ccc(CN4C[C@H]5C[C@@H]4CN5c4cccc(Cl)c4Cl)cc3C2=O)C(=O)N1 (stereo partly drawn) [GT-06690, 5-(((1R,4R)-5-(2,3-dichlorophenyl)-2,5-diazabicyclo[2.2.1]heptan-2-yl)methyl)-2-(2,6-dioxopiperidin-3-yl)isoindoline-1,3-dione] | B (80%< substrate protein remaining %≤ 100%) | B (80%< substrate protein remaining %≤ 100%) | B (80%< substrate protein remaining %≤ 100%) | B (80%< substrate protein remaining %≤ 100%) | A (0% ≤ substrate protein remaining % ≤ 80%) | A (0% ≤ substrate protein remaining % ≤ 80%)
O=C1CCC(N2C(=O)c3ccc(CN4C[C@@H]5C[C@H]4CN5c4cccc(Cl)c4Cl)cc3C2=O)C(=O)N1 (stereo partly drawn) [GT-06691, 5-(((1S,4S)-5-(2,3-dichlorophenyl)-2,5-diazabicyclo[2.2.1]heptan-2-yl)methyl)-2-(2,6-dioxopiperidin-3-yl)isoindoline-1,3-dione] | B (80%< substrate protein remaining %≤ 100%) | A (0% ≤ substrate protein remaining % ≤ 80%) | B (80%< substrate protein remaining %≤ 100%) | A (0% ≤ substrate protein remaining % ≤ 80%) | A (0% ≤ substrate protein remaining % ≤ 80%) | B (80%< substrate protein remaining %≤ 100%)
O=C1CCC(N2C(=O)c3ccc(CN4CC5CCC4CN5c4cccc(Cl)c4Cl)cc3C2=O)C(=O)N1 (stereo not drawn) [GT-06692, 5-((5-(2,3-dichlorophenyl)-2,5-diazabicyclo[2.2.2]octan-2-yl)methyl)-2-(2,6-dioxopiperidin-3-yl)isoindoline-1,3-dione] | B (80%< substrate protein remaining %≤ 100%) | A (0% ≤ substrate protein remaining % ≤ 80%) | B (80%< substrate protein remaining %≤ 100%) | A (0% ≤ substrate protein remaining % ≤ 80%) | A (0% ≤ substrate protein remaining % ≤ 80%) | B (80%< substrate protein remaining %≤ 100%)
O=C1CCC(N2C(=O)c3ccc(CN4CC5CCC(C4)N5c4cccc(Cl)c4Cl)cc3C2=O)C(=O)N1 (stereo not drawn) [GT-06693, 5-((8-(2,3-dichlorophenyl)-3,8-diazabicyclo[3.2.1]octan-3-yl)methyl)-2-(2,6-dioxopiperidin-3-yl)isoindoline-1,3-dione] | B (80%< substrate protein remaining %≤ 100%) | A (0% ≤ substrate protein remaining % ≤ 80%) | B (80%< substrate protein remaining %≤ 100%) | A (0% ≤ substrate protein remaining % ≤ 80%) | A (0% ≤ substrate protein remaining % ≤ 80%) | B (80%< substrate protein remaining %≤ 100%)
O=C1CCC(N2C(=O)c3ccc(CN4CCCN(c5cccc(Cl)c5Cl)CC4)cc3C2=O)C(=O)N1 (stereo not drawn) [GT-06695, 5-((4-(2,3-dichlorophenyl)-1,4-diazepan-1-yl)methyl)-2-(2,6-dioxopiperidin-3-yl)isoindoline-1,3-dione] | B (80%< substrate protein remaining %≤ 100%) | A (0% ≤ substrate protein remaining % ≤ 80%) | B (80%< substrate protein remaining %≤ 100%) | B (80%< substrate protein remaining %≤ 100%) | A (0% ≤ substrate protein remaining % ≤ 80%) | B (80%< substrate protein remaining %≤ 100%)
O=C1CCC(N2C(=O)c3ccc(CN4CCC(n5c(=O)[nH]c6cc(F)ccc65)CC4)cc3C2=O)C(=O)N1 (stereo not drawn) [GT-06704, 2-(2,6-dioxopiperidin-3-yl)-5-((4-(5-fluoro-2-oxo-2,3-dihydro-1H-benzo[d]imidazol-1-yl)piperidin-1-yl)methyl)isoindoline-1,3-dione] | B (80%< substrate protein remaining %≤ 100%) | B (80%< substrate protein remaining %≤ 100%) | B (80%< substrate protein remaining %≤ 100%) | B (80%< substrate protein remaining %≤ 100%) | A (0% ≤ substrate protein remaining % ≤ 80%) | A (0% ≤ substrate protein remaining % ≤ 80%)
O=C1CCC(N2C(=O)c3ccc(CN4CCN(c5c[nH]c6ncccc56)CC4)cc3C2=O)C(=O)N1 (stereo not drawn) [GT-06707, 5-((4-(1H-pyrrolo[2,3-b]pyridin-3-yl)piperazin-1-yl)methyl)-2-(2,6-dioxopiperidin-3-yl)isoindoline-1,3-dione] | B (80%< substrate protein remaining %≤ 100%) | B (80%< substrate protein remaining %≤ 100%) | A (0% ≤ substrate protein remaining % ≤ 80%) | A (0% ≤ substrate protein remaining % ≤ 80%) | A (0% ≤ substrate protein remaining % ≤ 80%) | A (0% ≤ substrate protein remaining % ≤ 80%)
O=C1CCC(N2C(=O)c3ccc(CN4CCN(c5nc(Cl)nc6c5SCC6)CC4)cc3C2=O)C(=O)N1 (stereo not drawn) [GT-06710, 5-((4-(2-chloro-6,7-dihydrothieno[3,2-d]pyrimidin-4-yl)piperazin-1-yl)methyl)-2-(2,6-dioxopiperidin-3-yl)isoindoline-1,3-dione] | B (80%< substrate protein remaining %≤ 100%) | A (0% ≤ substrate protein remaining % ≤ 80%) | B (80%< substrate protein remaining %≤ 100%) | B (80%< substrate protein remaining %≤ 100%) | A (0% ≤ substrate protein remaining % ≤ 80%) | B (80%< substrate protein remaining %≤ 100%)
O=C1CCC(N2C(=O)c3ccc(CN4CCc5sccc5C4)cc3C2=O)C(=O)N1 (stereo not drawn) [GT-06762, 5-((6,7-dihydrothieno[3,2-c]pyridin-5(4H)-yl)methyl)-2-(2,6-dioxopiperidin-3-yl)isoindoline-1,3-dione] | A (0% ≤ substrate protein remaining % ≤ 80%) | B (80%< substrate protein remaining %≤ 100%) | A (0% ≤ substrate protein remaining % ≤ 80%) | A (0% ≤ substrate protein remaining % ≤ 80%) | B (80%< substrate protein remaining %≤ 100%) | B (80%< substrate protein remaining %≤ 100%)

— EP4745137A1 (Gluetacs Therapeutics (Shanghai) Co., Ltd., priority 2023, dated 2025)
